Laboratory results from publication PMC10728220, “Novel 3-(pyrazol-4-yl)-2-(1H-indole-3-carbonyl)acrylonitrile derivatives induce intrinsic and extrinsic apoptotic death mediated P53 in HCT116 colon carcinoma” (Scientific Reports, 2023).

Experiments:
[1] = test system: Human caspase-9; assay: ELISA caspase 9 production in HCT116; format: cell-based; settings: HCT116 treated with 7f
Protocol: The compound 7f induced caspase 9 production in a dose–response approach. This was achieved by using the following concentrations of chalcone 7f (1.6, 3.1, 6.3, 12.5, 25, 50, 100 ng/ml). There was a continuing rise in the caspase 9 production level by increasing the concentrations regularly. Compound 7f was able to stimulate the production of caspase 9 by inducing a 21.43 ng/ml of caspase 9.
(§1) The quantitative measurements of Human caspases-3, -8, and -9 concentrations in HCT116 cell culture lysates were performed using ELISA assay. The protocols were followed up based on the manuscript instructions described in the following kits; Invitrogen human Caspase-3 Elisa Kit, Catalog # KHO1091, DRG® human Caspase-8 ELISA Kit, Catalog # (EIA-4863), and DRG® human Caspase-9 ELISA Kit, Catalog # (EIA-4860)respectively. In short, the procedure described in the above protocols was as instructed; all reagents, standards, and samples were prepared. Then, 100 μL of standard or samples were added to each well and incubated at room temperature for 2 h. […] All readings were measured immediately at a wavelength of 450 nm. From the readings of the standards, a standard curve was plotted using curve fitting software. Then, the concentrations for unknown samples and controls were measured from the standard curve.

[2] = test system: lung carcinoma (A549); assay: Cytotoxic MTT assay, A549; format: cell-based; settings: Homo sapiens, 48 h treatment
Protocol: MTT protocol was performed to study the viability of cells after treatment with the tested compounds. The studied cell lines (A549 and HCT116) were cultured and grown in RPMI‐1640 media, while HFB4 cells were reserved in DMEM‐F12 media. Both media were supplemented with 10% FBS, 1% L‐glutamine, and 1% antibiotic–antimycotic mixture. The cell lines were grown at conditions of 37 °C and 5% CO2. 10 × 10^3 of A549, and HCT116 cells and the same count of normal melanocytes (HFB4) were cultured in a 96‐well plate. The selected cultured cells were kept at 37°C and 5% CO2 overnight. Then, the medium was discarded after 24 h of incubation, and 100 µL from different concentrations of the studied compounds dissolved in fresh medium without serum, with final concentrations of 100, 50, 25, 12.5, 6.25, 3.125, 1.56, and 0.78 µg/mL was added. The treated cells were then incubated for 48 h. After that, 50 µL of MTT was added into each well for 4 h for the formazan crystals to be formed. Finally, 200 µl of 10% sodium dodecyl sulphate (SDS) was added to each well, and plates were kept at room temperature overnight to allow the reaction to be stopped. The optical density at 575 nm was read using a microplate multi-well reader, and the percentage of cell viability was calculated. The dose–response curve was drawn to calculate the IC50 values for each compound using the prism GraphPad 5 program, [84]. 5 Fluorouracil, a commercial anticancer drug was used as a reference drug (positive control). Negative untreated cell control was used in this assay.

[3] = test system: Bcl2; assay: RT-PCR gene expression, Bcl2, in HCT116; format: cell-based, human; settings: HCT116, 6.76 µg/mL, 48 h, relative to untreated control
Protocol: (§2) In this current research, relative gene expression related to apoptosis should be studied well because they were very interesting to understand the effect of our selected compound on this important biological process. HCT116 cells were treated with chalcone 7f (6.76µg/mL) for 48 h, and then subjected to qPCR analysis regarding control samples. The effect of chalcone 7f on the expression level of (Bax, p53, Bcl2, and CDK4) genes was assessed using the qPCR technique. […] As indicated in this schematic diagram, the expression of apoptotic genes (Bax and P53) was enhanced by the effect of chalcone 7f to reach (3.662, and 5.435) respectively, relative to the control.
(§3) Total RNA was extracted from the compound 7f-treated HCT116 cells and the untreated cells using the RNA Purification Kit GeneJET (Thermo scientific, ON, Canada) 0.1 µg of the extracted RNA was reverse transcribed into complementary DNA (cDNA) using High-Capacity cDNA Reverse Transcription Kit (Thermo Scientific, ON, Canada). qPCR was done using Brilliant SYBR Green qPCR master mix (Applied Biosystems, San Francisco, CA, USA) in One Step Plus Real-Time PCR System (Applied Biosystems, San Francisco, CA, USA). […] The relative gene expression was determined using the 2^−ΔΔCt equation after normalization to the expression of β-actin (housekeeping gene) (Qiagen, CA, USA)(10 pmol/µL)[85], [86]. […]

[4] = test system: CDK4; assay: RT-PCR gene expression, CDK4, in HCT116; format: cell-based, human; settings: HCT116, 6.76 µg/mL, 48 h, relative to untreated control
Protocol: as §2, §3

[5] = test system: Human caspase-8; assay: ELISA caspase 8 production in HCT116; format: cell-based
Protocol: The production of caspase 8 was determined using various concentrations of 7f in a concertation-dependent manner. There was a gradual increase in the caspase 8 production level using the following concentrations (0.156, 0.312, 0.625, 1.25, 2.5, 5, and 10 ng/ml). The maximal increase in caspase 8 production was achieved by using 7f concentrations between 5 and 10 ng/ml (Fig. 8).
as §1, with “h. Afterward, 100 μL of the prepared antibody (anti-rabbit-IgG-HRP) was added to all wells for 1 h at room temperature.” for “h.”

SMILES: N#C/C(=C\c1cn(-c2ccccc2)nc1-c1ccc([N+](=O)[O-])cc1)C(=O)c1c[nH]c2ccccc12 [Compound 7f, (E)-2-(1H-Indole-3-carbonyl)-3-(3-(4-nitrophenyl)-1-phenyl-1H-pyrazol-4-yl)acrylonitrile]
- caspase 9 production [1]: 21.43 ng/mL
- caspase 9 production, fold increase compared to control cells [1]: ~4.641 fold
- IC50 [2]: > 100 µg/mL
- RT-PCR fold change bcl2 [3]: 0.351 fold
- RT-PCR fold change CDK4 [4]: 0.454 fold
- caspase 8 production, fold increase ([5]; HCT116 treated with 7f versus untreated): 3.788 fold
- caspase 8 production level ([5]; HCT116 treated with 7f, untreated 0.2914 ng/ml): 1.104 ng/mL
